Measured values as given in patent US10792263B2, “Method of treating an individual having a microbial infection” (Sun Yat-sen University, priority 2012, dated 2020).
Read-outs that look alike come from different tables or passages of the source.

Assays:
E. coli K12 BW25113 [1] = conditions: for increase of bactericidal effect, serum plus glycine versus serum: 100 μL human serum plus 100 mM glycine
Procedure: (§1) Sample preparation: Single colonies of the parent strain E. coli K12 BW25113 are picked from Luria-Bertani (LB) agar plate, inoculated into 5 mL LB medium and incubated with shaking at 200 rpm, 37° C. for 16 hours. Cultures are then diluted 1:100 (v/v) in 200 mL fresh LB medium and grow to an OD600 of 1.0 at 37° C. with shaking. Cells are collected by centrifugation at 8000 rpm for 10 minutes at 4° C. and washed with 0.85% saline once.
To understand whether glycine enhances the bactericidal effect of serum, experiments are carried out in 3 scenarios: the same volume of human serum mixed with different concentrations of glycine, different volumes of human serum mixed with the same concentration of glycine, and these mixtures are treated for different incubation periods.
Bacterial cells are prepared according to Example 1.1. Glycine is added to a final concentration of 0, 5, 10, 30, 50 and 100 mM and the mixtures are cultured for 1 hour at 37° C. with shaking at 200 rpm. Then 100 μL of human serum or saline are added as test and control groups, respectively. Bacteria are cultured for 2 hours and collected by centrifugation. Cells are resuspended with 1 mL of saline. Live bacterial cells are counted on LB agar plate. Survival rate is calculated as follows: number of live bacteria cells after treatment with different concentrations of glycine supplementation/number of live bacteria cells after treatment with saline×100%.
Bacterial samples are prepared and added with 100 mM glycine and cultured for 1 hour at 37° C. with shaking at 200 rpm. Then 0, 20, 40, 60, 80 or 100 μL human serum is added and cultured for 2 hours at 37° C. with shaking at 200 rpm. The controls are not mixed with glycine but only with different volumes of human serum. Bacteria are collected by centrifugation and resuspended with 1 mL of saline for spot-plate counting. The survival rate is calculated as follows: the number of live bacteria cells after treatment with glycine plus different volumes of human serum/the number of live cells after treatment with only human serum×100%.
The prepared bacterial samples are divided into 4 groups and treated separately as follows: with 100 mM glycine, 100 μL human serum, 100 μL human serum plus 100 mM glycine or saline alone as control. The mixtures are cultured for 0.5, 1, 2, 3, and 4 hours at 37° C. with shaking at 200 rpm. Bacteria are collected by centrifugation and resuspended in 1 mL saline. Bacteria are counted using LB agar plates. The survival rate is calculated as follows: the number of live bacteria after treatment with serum and/or glycine in different times/the number of live bacteria in the saline control group×100%.

E. coli K12 BW25113 [2] = conditions: mice, 6 times, blood at 48 hours
Procedure: (§2) A total of 15 6-week-old mice (purchased from the Laboratory Animals Center of Sun Yat-sen University) are randomly divided into three groups: saline control group and two treatment groups are administered with 3.25 or 6.5 mg glycine/mouse. The compound is intravenously administered at 3.25 or 6.5 mg glycine/injection/mouse every 12 hours and 6 times in total. Mice are intravenously injected 1×10^6 E. coli K12 BW25113 or E. coli clinical isolate Y17 at 12 hours after the last administration of glycine. Blood is withdrawn from mouse tail vein at 48 hours. The clearance of bacteria is determined by plate counting.

[3] = test system: E. coli clinical isolate Y17; conditions: mice, 6 times, blood at 48 hours
Procedure: as §2

[4] = test system: E. coli K12 BW25113, E. coli clinical strain Y17, beta-hemolytic Streptococcus, Vibro alginolyticus, Vibro parahaemolyticus, Pseudomonas aeruginosa and …; conditions: 125-175 μL human serum plus 100-150 mM glycine, 4 hours
Procedure: as §1

[5] = test system: E. coli K12 BW25113, E. coli clinical strain Y17, Vibro alginolyticus, Vibro parahaemolyticus, Pseudomonas aeruginosa and Staphylococcus aureus; conditions: 100 μL serum/plasma of different animals plus 100 mM glycine, 4 hour
Procedure: as §1
A variety of bacteria (E. coli K12 BW25113, E. coli clinical strain Y17, Vibro alginolyticus, Vibro parahaemolyticus, Pseudomonas aeruginosa and Staphylococcus aureus) are cultured as described in Example 1.1. Aliquots of 3 mL bacteria are collected with OD600 of 1.0. Then, 100 μL serum/plasma from different animals or 100 μL serum/plasma of different animals plus 100 mM glycine are added and 100 mM glycine alone is used a control. Cells are cultured for 4 hour at 37° C. with shaking at 200 rpm. Bacteria are resuspended with 1 mL of saline. Absorbance is measured at 600 nm.

E. coli = assay: Human serum bactericidal assay with threonine, OD600 survival rate; type: cell-based, Escherichia coli; conditions: 2 hours
Procedure: The prepared bacterial cells are divided to four groups. […] Absorbance is measured at 600 nm Survival rate is calculated as follows: the OD in groups after treatment with serum, threonine or serum plus threonine/the OD in the control group treated with saline×100%. […] Certain bactericidal effect is detected in the group with serum alone. Compared with the group with serum alone, the group with serum plus threonine has a significant 1.5-fold increase of bactericidal effect.

[6] = 3.25 mg glycine/injection i.v. every 12 hours
[7] = 6.5 mg glycine/injection i.v. every 12 hours

| Compound | increase of the serum bactericidal effect (E. coli K12 BW25113 [1]; 5 mM glycine, 1 h preincubation, then 100 μL human serum for 2 hours, 37° C.) | elevation of serum bactericidal effect, serum volume series (E. coli K12 BW25113 [1]; 100 mM glycine plus 100 μL human serum, 2 hours, versus human serum only) | bactericidal effect of glycine alone (E. coli K12 BW25113 [1]; 100 mM glycine without serum, 0.5 to 4 hours) | increase of the serum bactericidal effect (highest effect) (E. coli K12 BW25113 [1]; 100 mM glycine, 1 h preincubation, then 100 μL human serum for 2 hours, 37° C.) | increase of bactericidal effect, serum plus glycine versus serum (E. coli K12 BW25113 [1]; after 0.5 hours) | increase of bactericidal effect, serum plus glycine versus serum (E. coli K12 BW25113 [1]; after 1 hour) | increase of bactericidal effect, serum plus glycine versus serum (E. coli K12 BW25113 [1]; after 4 hours) | Clearance rate (E. coli K12 BW25113 [2]; [6]) | Clearance rate (E. coli K12 BW25113 [2]; [7]) | Clearance rate [3, 6] | Clearance rate [3, 7] | increase of serum bactericidal effect, lower bound over all bacteria tested [4] | increase of serum bactericidal effect, maximum over all bacteria tested [4] | increase of bactericidal effect of animal serum/plasma, maximum [5] | increase of bactericidal effect of animal serum/plasma, minimum [5] | bactericidal effect of threonine alone (E. coli; 100 mM threonine without serum) | increase of bactericidal effect, serum plus threonine versus serum alone (E. coli; 100 μL human serum plus 100 mM threonine) |
| --- | --- | --- | --- | --- | --- | --- | --- | --- | --- | --- | --- | --- | --- | --- | --- | --- | --- |
| NCC(=O)O [glycine] | 1.36 fold | 86 fold | no bactericidal effect | ~86 fold | 2 fold | 77 fold | 120 fold | 89.32% | 96.85% | 32.95% | 52.53% | more than 1 fold | up to 4.13 fold | ~10 fold | ≥ 1.5 fold |  |  |
| C[C@@H](O)[C@H](N)C(=O)O [threonine] |  |  |  |  |  |  |  |  |  |  |  |  |  |  |  | no bactericidal effect | 1.5 fold |
